Broadly, the Ki is a dissociation constant, usually derived from enzyme kinetics or from competition with a known ligand. Read a low Ki as higher affinity.

The values that follow come from patent US7166617B2, “Cyclic amide derivatives” (Mitsubishi Pharma Corporation, priority 2000, dated 2007).

Structures can show the parent of a compound that is named as a salt.

One assay concerns the target T1, sigma 2 receptor (Rattus norvegicus, UniProt Q5U3Y7).
T1 construct: A crude P2 membrane fraction was prepared from livers of male rats (Sprague-Dawley rats); from tissue; host or cells: rat liver (male Sprague-Dawley), crude P2 membrane fraction
T1 sequence (Q5U3Y7 1-176): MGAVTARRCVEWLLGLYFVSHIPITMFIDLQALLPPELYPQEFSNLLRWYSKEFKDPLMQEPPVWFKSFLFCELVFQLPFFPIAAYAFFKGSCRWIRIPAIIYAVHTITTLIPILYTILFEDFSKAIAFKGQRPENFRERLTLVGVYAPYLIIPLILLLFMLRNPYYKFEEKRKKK
Nature of the assay: Sigma 2-selective receptor binding inhibition test ([3H]-DTG, rat liver P2 membrane fraction). The following applies: [3H]-DTG 1 nM, 500 nM pentazocine, P2 fraction of livers of male Sprague-Dawley rats, 25° C., 2 hours. As for the experimental part:
Sigma Binding Site-Binding Inhibition Test
A crude P2 membrane fraction was prepared from livers of male rats (Sprague-Dawley rats) according to a method described in the literature (X. He, et al., J. Med. Chem., 36, pp. 566–571, 1993). In the presence of 500 nM pentazocine and a control compound at various concentrations (haloperidol, 10^−10 to 10^−6 M) or a test ligand at various concentrations (10^−10 to 10^−5 M) together with a radioactive ligand, the P2 fraction (0.4 ml) was incubated in 50 mM Tris-HCl (pH 7.4, final volume: 0.5 ml) at 25° C. for 2 hours. The reaction mixture was rapidly filtered on a Brandel cell harvester using Whatman GF/B filter paper, which was immersed beforehand in 0.5% polyethyleneimine for 1 hour, to stop the reaction. The filter paper was washed 4 times with the ice cooled incubation buffer. The non-specific results were evaluated by using 1 μM haloperidol, and the scintillation analysis and the curve analysis were performed as described above.
Consider `O=C1c2ccc(Br)cc2CN1CC1CCN(CC(O)c2ccc(F)cc2)CC1` (racemic) [Example 17, (R,S)-5-Bromo-2-[[1-[2-(4-fluorophenyl)-2-hydroxyethyl]piperidin-4-yl]methyl]isoindolin-1-one hydrochloride], for which affinity was put at a Ki of 24 nM.

In the case of `O=C(CN1CCC(CN2Cc3ccccc3C2=O)CC1)c1ccc(F)cc1` [Example 1, 2-[[1-[2-(4-Fluorophenyl)-2-oxoethyl]piperidin-4-yl]methyl]isoindolin-1-one hydrochloride], the inhibitory constant (Ki) was found to be 13 nM.

In the case of `O=C(CN1CCC(CN2Cc3c(Br)cccc3C2=O)CC1)c1ccc(F)cc1` [Example 2, 4-Bromo-2-[[1-[2-(4-fluorophenyl)-2-oxoethyl]piperidin-4-yl]methyl]isoindolin-1-one hydrochloride], the affinity corresponds to a Ki of 2.8 nM.

For the molecule `O=C(CN1CCC(CN2Cc3cc(Br)ccc3C2=O)CC1)c1ccc(F)cc1` [Example 3, 5-Bromo-2-[[1-[2-(4-fluorophenyl)-2-oxoethyl]piperidin-4-yl]methyl]isoindolin-1-one hydrochloride], the inhibition constant Ki turned out to be 7 nM.

Turning to `O=C(CN1CCC(CN2Cc3ccc(Br)cc3C2=O)CC1)c1ccc(F)cc1` [Example 4, 6-Bromo-2-[[1-[2-(4-fluorophenyl)-2-oxoethyl]piperidin-4-yl]methyl]isoindolin-1-one hydrochloride], the inhibition constant Ki came to 7.6 nM.

For `O=C(CN1CCC(CN2Cc3c(F)cccc3C2=O)CC1)c1ccc(F)cc1` [Example 6, 4-Fluoro-2-[[1-[2-(4-fluorophenyl)-2-oxoethyl]piperidin-4-yl]methyl]isoindolin-1-one hydrochloride], affinity was put at a Ki of 8.7 nM.

With `O=C(CN1CCC(CN2Cc3ccc(F)cc3C2=O)CC1)c1ccc(F)cc1` [Example 7, 6-Fluoro-2-[[1-[2-(4-fluorophenyl)-2-oxoethyl]piperidin-4-yl]methyl]isoindolin-1-one hydrochloride], the affinity, expressed as Ki, was 16 nM.

Take `O=C(CN1CCC(CN2Cc3cc(Cl)ccc3C2=O)CC1)c1ccc(F)cc1` [Example 8, 5-Chloro-2-[[1-[2-(4-fluorophenyl)-2-oxoethyl]piperidin-4-yl]methyl]isoindolin-1-one hydrochloride]: the affinity, expressed as Ki, was 3.1 nM.

`COc1ccc2c(c1)CN(CC1CCN(CC(=O)c3ccc(F)cc3)CC1)C2=O` [Example 9, 5-Methyloxy-2-[[1-[2-(4-fluorophenyl)-2-oxoethyl]piperidin-4-yl]methyl]isoindolin-1-one hydrochloride] came in with an inhibition constant Ki of 4.9 nM.

Turning to `O=C(CN1CCC(CN2Cc3ccccc3C2=O)CC1)c1ccccc1` [Example 13, 2-[[1-(2-Phenyl-2-oxoethyl)piperidin-4-yl]methyl]isoindolin-1-one hydrochloride], the affinity corresponds to a Ki of 6.6 nM.

The molecule `O=C(CN1CCC(CN2Cc3ccsc3C2=O)CC1)c1ccc(F)cc1` [Example 22, 5-[[1-[2-(4-Fluorophenyl)-2-oxoethyl]piperidin-4-yl]methyl]-4,5-dihydro-6H-thieno[2,3-c]pyrrol-6-one hydrochloride] yielded a Ki of 22 nM.

`CC(C)(C)C(=O)CN1CCC(CN2Cc3ccccc3C2=O)CC1` [Example 24, 2-[[1-(3,3-Dimethyl-2-oxobutyl)piperidin-4-yl]methyl]isoindolin-1-one hydrochloride] returned a Ki of 13 nM.

Turning to `COc1ccccc1CCN1CCC(CN2Cc3ccccc3C2=O)CC1` [Example 26, 2-[[1-[2-(2-Methoxyphenyl)ethyl]piperidin-4-yl]methyl]isoindolin-1-one hydrochloride], the Ki was 10 nM.

Take `O=C(CCN1CCC(CN2Cc3ccccc3C2=O)CC1)c1ccccc1` [Example 30, 2-[[1-[3-Phenyl-3-oxopropyl]piperidin-4-yl]methyl]isoindolin-1-one hydrochloride]: the inhibition constant Ki amounted to 22 nM.

`O=C(CCCN1CCC(CN2Cc3ccccc3C2=O)CC1)c1ccc(F)cc1` [Example 31, 2-[[1-[4-(4-Fluorophenyl)-4-oxobutyl]piperidin-4-yl]methyl]isoindolin-1-one hydrochloride] returned a Ki of 22 nM.

As to `O=C1c2ccccc2CN1CC1CCN(CCOc2ccc(F)cc2)CC1` [Example 32, 2-[[1-[2-(4-Fluorophenyloxy)ethyl]piperidin-4-yl]methyl]isoindolin-1-one hydrochloride], the affinity, expressed as Ki, was 2.8 nM.

As to `O=C1c2ccccc2CN1CC1CCN(CCc2c[nH]c3ccccc23)CC1` [Example 36, 2-[[1-[2-(Indol-3-yl)ethyl]piperidin-4-yl]methyl]isoindolin-1-one ½.fumarate], the Ki was determined as 50 nM.

`O=C(CN1CCC(CN2Cc3ccccc3C2=O)CC1)N1CCCCC1` [Example 50, 2-[[1-[2-Oxo-2-(piperidin-1-yl)ethyl]piperidin-4-yl]methyl]isoindolin-1-one fumarate]: the Ki turned out to be 14 nM.

For the molecule `O=C(CN1CCC(CN2Cc3ccccc3C2=O)CC1)C1CCCCC1` [Example 84, 2-[[1-(2-Cyclohexyl-2-oxoethyl)piperidin-4-yl]methyl]isoindolin-1-one fumarate], the affinity, expressed as Ki, was 3.4 nM.

Staying with this assay, now noted: test compound 10 nM; [3H]-DTG 1 nM, 500 nM pentazocine, rat liver P2 fraction; read-out: Inhibitory rate against sigma 2 (%, 10 nM).
Take `O=C1c2ccccc2CN1CC1CCN(CC(=O)N2CCCc3ccccc32)CC1` [Example 48, 2-[[1-[2-(1,2,3,4-Tetrahydroquinolin-1-yl)-2-oxoethyl]piperidin-4-yl]methyl]isoindolin-1-one hydrochloride]: the inhibition at 0.01 µM was determined as 59%.

As for `O=C(CN1CCC(CN2Cc3ccccc3C2=O)CC1)N1CCCCC1` [Example 50, 2-[[1-[2-Oxo-2-(piperidin-1-yl)ethyl]piperidin-4-yl]methyl]isoindolin-1-one fumarate], the inhibition at 0.01 µM was 52%.

With `O=C1c2ccccc2CN1CC1CCN(CC(=O)N2CCc3ccccc32)CC1` [Example 51, 2-[[1-[2-(Indolin-1-yl)-2-oxoethyl]piperidin-4-yl]methyl]isoindolin-1-one fumarate], the inhibition at 0.01 µM was found to be 74%.

In the case of `O=C1c2ccccc2CN1CC1CCN(CCN2CCc3ccccc32)CC1` [Example 53, 2-[[1-[2-(Indolin-1-yl)ethyl]piperidin-4-yl]methyl]isoindolin-1-one fumarate], the inhibition at 0.01 µM turned out to be 57%.

Take `COc1ccccc1C(=O)CN1CCC(CN2Cc3ccccc3C2=O)CC1` [Example 72, 2-[[1-[2-(2-Methoxyphenyl)-2-oxoethyl]piperidin-4-yl]methyl]isoindolin-1-one fumarate]: the inhibition at 0.01 µM came out at 55%.

Turning to `O=C(CN1CCC(CN2Cc3ccccc3C2=O)CC1)c1cccc(Cl)c1` [Example 76, 2-[[1-[2-(3-Chlorophenyl)-2-oxoethyl]piperidin-4-yl]methyl]isoindolin-1-one fumarate], the inhibition at 0.01 µM turned out to be 84%.

As to `Cc1ccccc1C(=O)CN1CCC(CN2Cc3ccccc3C2=O)CC1` [Example 77, 2-[[1-[2-(2-Tolyl)-2-oxoethyl]piperidin-4-yl]methyl]isoindolin-1-one fumarate], the inhibition at 0.01 µM was 80%.

Regarding `Cc1cccc(C(=O)CN2CCC(CN3Cc4ccccc4C3=O)CC2)c1` [Example 78, 2-[[1-[2-(3-Tolyl)-2-oxoethyl]piperidin-4-yl]methyl]isoindolin-1-one fumarate], the inhibition at 0.01 µM was determined as 86%.

As for `O=C(CN1CCC(CN2Cc3ccccc3C2=O)CC1)C1CCCCC1` [Example 84, 2-[[1-(2-Cyclohexyl-2-oxoethyl)piperidin-4-yl]methyl]isoindolin-1-one fumarate], the inhibition at 0.01 µM came to 58%.

With `O=C1c2ccccc2CN1CC1CCN(CC(O)C2CCCCC2)CC1` (centres unmarked) [Example 85, 2-[[1-(2-Cyclohexyl-2-hydroxyethyl)piperidin-4-yl]methyl]isoindolin-1-one fumarate], the inhibition at 0.01 µM was 59%.
